Data as given in paper PMC9545004, “Transglutaminase 2 affinity and enzyme‐substrate intermediate stability as determining factors for T‐cell responses to gluten peptides in celiac disease” (European Journal of Immunology, 2022).
pIC50: −log10 of the molar value. Like-named read-outs stand apart in the source and are kept apart here.

Legend:
[1] = system: TG2:gluten complexes uptake by TG2-specific B cells (A20, BCR 679-14-E06); experiment: Inhibition by primary amines of TG2:gluten complex uptake by TG2-specific B cells, flow cytometry; assay type: cell-based, Murine A20 B lymphoma; recombinant human TG2; details: for pIC50: B-cell
From the text: (§1) Murine A20 B lymphoma cells engineered to express either the celiac patient‐derived TG2‐specific BCR 679‐14‐E06 or the non‐TG2‐specific BCR 693‐2‐F02 as human IgD are previously described. For B‐cell/T‐cell collaboration assays, we used A20 BCR transfectants also transduced to express HLA‐DQ2.5 [27]. Murine BW58α^–β^– cells were retrovirally transduced to express human CD4 as well as the celiac patient‐derived gluten‐specific TCR from a DQ2.5‐glia‐γ1‐reactive T‐cell clone (TCC 4.32) as previously described. The generation of TCR transfectants expressing DQ2.5‐glia‐α2‐reactive TCR (TCC 364.14) and DQ2.5‐glia‐ω2‐reactive TCR (clone 737.30) have been described previously.
B‐cell uptake of gluten peptides was measured essentially as previously described. The following 9‐mer peptides were compared: FITC‐α2, FITC‐ω2, FITC‐γ1, and FITC‐γ3. In brief, A20 cells (300 000/well) expressing TG2‐specific (679‐14‐E06) or non‐TG2 specific BCR (693‐2‐F02) were incubated with recombinant TG2 (final 3 µg/mL), 5 µM FITC peptide, and 2 mM CaCl2 in RPMI at a final volume of 50 µL. Following incubation at 37°C, the TG2 enzymatic activity was quenched by the addition of 100 µL 2 mM EDTA/RPMI at specific timepoints. Cells were washed, fixed in 2% methanol‐free formaldehyde (Invitrogen), resuspended in 2% fetal calf serum (FCS)/PBS, and analyzed by flow cytometry (Attune NxT Flow Cytometer, Thermo Scientific). For each peptide, a delta MFI was calculated by subtracting MFI from non‐TG2 specific A20 cell (unspecific binding) from MFI of TG2‐specific A20 cells. Delta MFI was normalized for each experiment by dividing by the highest delta value per experiment. To assess the contribution and uptake of isopeptide‐linked TG2:gluten complexes, TG2 (3 µg/mL) and FITC‐labelled peptides (5 µM) were preincubated in RPMI with 2 mM CaCl2 at 37°C for 30 min before addition of A20 cells followed by 30 min incubation at 37°C. To examine the effect of TG2 secondary substrates on peptide uptake, the primary amines spermine (Sigma–Aldrich) and biotinylated cadaverine (5‐biotinamido‐pentylamine; 5‐BP, Pierce) were added to the reaction mixture (0.1–1000 µM final concentration), followed by 10 min incubation at 37°C and flow cytometry analysis. The dose‐response curve fitting to find IC50 was done using the “[Inhibitor] vs. response” equation in GraphPad Prism 8.3.0. Of note, the presence of Lysine HCl in RPMI medium represents an experimental constant in our assays that is not accounted for when calculating the competitive effect of amine.

[2] = system: TCR-transfectant cells specific for DQ2.5-glia-α2; experiment: Inhibition by primary amines of activation of DQ2.5-glia-α2-specific T cells by TG2-specific B cells, IL-2 ELISA; assay type: cell-based; details: for pIC50: 5 µM N-α-gliadin 33-mer, TG2, CaCl2, amine 0-1000 µM, IL-2 ELISA
From the text: as §1
The B‐cell/T‐cell collaboration assays were set up as previously described. To compare the uptake and presentation of different gluten peptides to T cells, A20 cells (5 mill/mL) expressing the TG2‐specific BCR (679‐14‐E06) and HLA DQ2.5 were incubated with recombinant TG2 (final 3 µg/mL) and varying amounts of N‐α‐gliadin 20‐mer, N‐ω‐gliadin 19‐mer, or N‐γ‐gliadin 21‐mer in RPMI supplemented with 2 mM CaCl2. After a 30 min incubation at 37°C the cells were washed with 1% FCS/RPMI and resuspended in 5% FCS/RPMI to give a final 1.5 million cells/mL (150 000/well) followed by 2 h incubation at 37°C. Next, TCR‐transfectant cells specific for either DQ2.5‐glia‐α2, DQ2.5‐glia‐ω2, or DQ2.5‐glia‐γ1 were added (25 000/well), followed by overnight incubation at 37°C. The next day, IL‐2 concentration was measured in the culture supernatant by ELISA as previously described. The responsiveness of different TCR transfectants was assessed in the same way, but without the 30 min incubation with TG2, and using the synthetic deamidated peptides (D‐α‐gliadin 20‐mer, D‐ω‐gliadin 17‐mer, and D‐γ‐gliadin 21‐mer). To assess how TG2 secondary substrate affects peptide uptake and presentation to T cells, TG2‐specific A20 cells expressing DQ2.5 were incubated with TG2, CaCl2, 5 µM N‐ω‐gliadin 34‐mer, or 5 µM N‐α‐gliadin 33‐mer in the presence of primary amines at increasing concentrations (0‐1000 µM), before the addition of TCR‐transfectant cells specific for the DQ2.5‐glia‐α2 or DQ2.5‐glia‐ω2 epitopes. The dose‐response curve fitting to find IC50 was done using the “[Inhibitor] vs. response” equation in GraphPad Prism 8.3.0. To examine whether primary amines directly affect the B cells, TG2‐specific A20 cell expressing DQ2.5 were incubated with primary amines for 30 min and washed, before addition of 2 µM D‐ω‐gliadin 34‐mer, followed by incubation with DQ2.5‐glia‐ω2 TCR transfectants.

[3] = logIC50, inhibition of FITC-α2 uptake, Figure 4
[4] = logIC50, inhibition of FITC-α2 uptake, mean
[5] = logIC50, inhibition of FITC-α2 uptake, replicate Figure S4 A
[6] = logIC50, inhibition of FITC-α2 uptake, replicate Figure S4 B
[7] = logIC50, inhibition of FITC-ω2 uptake, Figure 4
[8] = logIC50, inhibition of FITC-ω2 uptake, mean
[9] = logIC50, inhibition of FITC-ω2 uptake, replicate Figure S4 A
[10] = logIC50, inhibition of FITC-ω2 uptake, replicate Figure S4 B
[11] = DQ2.5-glia-α2, replicate Figure S5A
[12] = DQ2.5-glia-α2, replicate Figure S5B
[13] = logIC50, DQ2.5-glia-α2, Figure 5
[14] = logIC50, DQ2.5-glia-α2, replicate Figure S5A
[15] = logIC50, DQ2.5-glia-α2, replicate Figure S5B

In the case of `NCCCCCNC(=O)CCCC[C@@H]1SC[C@@H]2NC(=O)N[C@@H]21` [5-BP, 5‐biotinamido‐pentylamine], the pIC50 ([1]; 10 min, inhibition of FITC-α2 (5 µM) uptake, TG2 3 µg/mL, 2 mM CaCl2, RPMI, 37°C 10 min, Figure 4, read-out: IC50) was 4.64, the pIC50 ([1]; 10 min, inhibition of FITC-α2 (5 µM) uptake, TG2 3 µg/mL, 2 mM CaCl2, RPMI, 37°C 10 min, mean, read-out: IC50) was 4.38 and the pIC50 ([1]; 10 min, inhibition of FITC-α2 (5 µM) uptake, TG2 3 µg/mL, 2 mM CaCl2, RPMI, 37°C 10 min, replicate Figure S4 A, read-out: IC50) was 4.24. For the same compound, the pIC50 ([1]; 10 min, inhibition of FITC-α2 (5 µM) uptake, TG2 3 µg/mL, 2 mM CaCl2, RPMI, 37°C 10 min, replicate Figure S4 B, read-out: IC50) was 4.34, the pIC50 ([1]; 10 min, inhibition of FITC-ω2 (5 µM) uptake, TG2 3 µg/mL, 2 mM CaCl2, RPMI, 37°C 10 min, Figure 4, read-out: IC50) was 4.68 and the pIC50 ([1]; 10 min, inhibition of FITC-ω2 (5 µM) uptake, TG2 3 µg/mL, 2 mM CaCl2, RPMI, 37°C 10 min, mean (spermine: Figure S4 B not included), read-out: IC50) was 4.14. For the same compound, the pIC50 ([1]; 10 min, inhibition of FITC-ω2 (5 µM) uptake, TG2 3 µg/mL, 2 mM CaCl2, RPMI, 37°C 10 min, replicate Figure S4 A, read-out: IC50) was 3.89, the pIC50 ([1]; 10 min, inhibition of FITC-ω2 (5 µM) uptake, TG2 3 µg/mL, 2 mM CaCl2, RPMI, 37°C 10 min, replicate Figure S4 B (for spermine not included in the mean), read-out: IC50) was 4.18 and the pIC50 ([1]; FITC 9-mer native gluten peptides, average IC50 values, Table S1, read-out: IC50, inhibition of FITC-9-mer peptide uptake (average values)) was 4.14 to 4.59. It also gave a logIC50 ([1]; inhibition of FITC-α2 uptake, Figure 4) of 1.36, a logIC50 ([1]; inhibition of FITC-α2 uptake, mean) of 1.59 and a logIC50 ([1]; inhibition of FITC-α2 uptake, replicate Figure S4 B) of 1.66. For the same compound, the logIC50 ([1]; inhibition of FITC-ω2 uptake, Figure 4) was 1.32, the logIC50 ([1]; inhibition of FITC-ω2 uptake, mean) was 1.75 and the logIC50 ([1]; inhibition of FITC-ω2 uptake, replicate Figure S4 A) was 2.11. For the same compound, the logIC50 ([1]; inhibition of FITC-ω2 uptake, replicate Figure S4 B) was 1.82, the “log 95% CI lower limit” value [1, 3] was 1.04 and the “log 95% CI upper limit” value [1, 3] was 1.71. For the same compound, the “log 95% CI lower limit” value [1, 4] was 1.35, the “log 95% CI upper limit” value [1, 4] was 1.85 and the “log 95% CI lower limit” value [1, 5] was 1.52. The “log 95% CI upper limit” value [1, 5] was 2.00, the “log 95% CI lower limit” value [1, 6] was 1.50 and the “log 95% CI upper limit” value [1, 6] was 1.82. For the same compound, the “log 95% CI lower limit” value [1, 7] was 1.09, the “log 95% CI upper limit” value [1, 7] was 1.57 and the “log 95% CI lower limit” value [1, 8] was 1.48. The “log 95% CI upper limit” value [1, 8] was 2.03, the “log 95% CI lower limit” value [1, 9] was 1.86 and the “log 95% CI upper limit” value [1, 9] was 2.38. For the same compound, the “log 95% CI lower limit” value [1, 10] was 1.50, the “log 95% CI upper limit” value [1, 10] was 2.14 and the pIC50 ([2]; DQ2.5-glia-α2, Figure 5) was 4.37. For the same compound, the pIC50 ([2]; DQ2.5-glia-α2, mean) was 4.27, the pIC50 [2, 11] was 4.63 and the pIC50 [2, 12] was 4.03. The logIC50 ([2]; DQ2.5-glia-α2, Figure 5) was 1.63, the logIC50 ([2]; DQ2.5-glia-α2, mean) was 1.66 and the logIC50 [2, 11] was 1.37. For the same compound, the logIC50 [2, 12] was 1.97, the “log 95% CI lower limit” value [2, 13] was 1.48 and the “log 95% CI upper limit” value [2, 13] was 1.78. For the same compound, the “log 95% CI lower limit” value ([2]; logIC50, DQ2.5-glia-α2, mean) was 1.39, the “log 95% CI upper limit” value ([2]; logIC50, DQ2.5-glia-α2, mean) was 1.93 and the “log 95% CI lower limit” value [2, 14] was 1.15. The “log 95% CI upper limit” value [2, 14] was 1.60, the “log 95% CI lower limit” value [2, 15] was 1.54 and the “log 95% CI upper limit” value [2, 15] was 2.43.
